Assay results as given in article PMC4741607 (Oncotarget, 2015).
Where two headings read alike, the source gives them in different places. Values belong to the molecule of their own block, whether it stands above or below them.

Legend:
A549 (EGFR wt) = assay: Proliferation (CellTiter-Glo), A549; type: cell-based, human; details: Homo sapiens
H358 (EGFR wt) = assay: Proliferation (CellTiter-Glo), H358; type: cell-based, human; details: Homo sapiens
PC-9 EGFR del 19 = assay: Colony formation assay, PC-9; type: cell-based, human
A431 (EGFR wt) = assay: Proliferation (CellTiter-Glo), A431; type: cell-based, human; details: Homo sapiens
H2122 (EGFR wt) = assay: Proliferation (CellTiter-Glo), H2122; type: cell-based, human; details: Homo sapiens
PC-9 (EGFR Del19) = assay: Proliferation (CellTiter-Glo), PC-9; type: cell-based, human; details: Homo sapiens
H1975 (EGFR L858R/T790M) = assay: Proliferation (CellTiter-Glo), H1975; type: cell-based, human; details: Homo sapiens
HCC827 EGFR Del 19 = assay: Colony formation assay, HCC827; type: cell-based, human
H3255 (EGFR L858R) = assay: Proliferation (CellTiter-Glo), H3255; type: cell-based, human; details: Homo sapiens
H23 (EGFR wt) = assay: Proliferation (CellTiter-Glo), H23; type: cell-based, human; details: Homo sapiens
H460 (EGFR wt) = assay: Proliferation (CellTiter-Glo), H460; type: cell-based, human; details: Homo sapiens
H3255 EGFR L858R = assay: Colony formation assay, H3255; type: cell-based, human
HCC827 (EGFR Del19) = assay: Proliferation (CellTiter-Glo), HCC827; type: cell-based, human; details: Homo sapiens
H1975 EGFR (L858R/T790M) = assay: Colony formation assay, H1975; type: cell-based, human
PC-9 cells = assay: Cell cycle analysis (FACS), PC-9; type: cell-based, human; details: PC-9, 24h, 0.3 μM
PC-9 xenograft = PC-9 xenograft mouse model; type: in vivo, Nude (Nu/Nu) mice; details: PC-9 xenograft, 25 mg/kg/day QD oral gavage
Method: (§1) Tumor diameter was measured 3 times weekly. Tumor volumes (V) were calculated by the equation (V = length × width × width/2). ALL experiments and procedures followed the guidelines of the Institutional Animal Care and Use Committees of National Institue of Biological Sciences, Beijing.

H1975 xenograft = H1975 xenograft mouse model; type: in vivo, Nude (Nu/Nu) mice; details: 25 mg/kg/day QD oral gavage
Method: as §1

H3255 cells = assay: Cell cycle analysis (FACS), H3255; type: cell-based, human; details: H3255, 24h, 0.3 μM
HCC827 cells = assay: Cell cycle analysis (FACS), HCC827; type: cell-based, human; details: HCC827, 24 h, 0.3 μM
H1975 cells = assay: Cell cycle analysis (FACS), H1975; type: cell-based, human; details: 0.3 μM
H460 cells = assay: Cell cycle analysis (FACS), H460; type: cell-based, human; details: H460, 48h, 0.3 μM

SMILES: C=CC(=O)Nc1cc(Nc2nccc(-c3cn(C)c4ccccc34)n2)c(OC)cc1N(C)CCN(C)C [AZD-9291, AZD9291]
GI50 (A549 (EGFR wt); A549, 72 h): 5000 nM | GI50 (H358 (EGFR wt); NCI-H358, 72 h): 9400 nM | EC50 (PC-9 EGFR del 19; Homo sapiens, 240 h, read-out: EC50 colony formation, PC-9, 10 days): 2.51 nM | GI50 (A431 (EGFR wt); A-431, 72 h): […] | GI50 (H2122 (EGFR wt); NCI-H2122, 72 h): 7600 nM | GI50 (PC-9 (EGFR Del19); 72 h): 3 nM | GI50 (H1975 (EGFR L858R/T790M); NCI-H1975, 72 h): […] | EC50 (HCC827 EGFR Del 19; Homo sapiens, HCC827, 240 h, read-out: EC50 colony formation, HCC827, 10 days): 1.23 nM | EC50 (HCC827 EGFR Del 19; read-out: EC50 colony formation, HCC827, 10 days): 1.2 nM | GI50 (H3255 (EGFR L858R); NCI-H3255, 72 h): 31 nM | GI50 (H23 (EGFR wt); 72 h): 4200 nM | GI50 (H460 (EGFR wt); NCI-H460, 72 h): 4000 nM | EC50 (H3255 EGFR L858R; Homo sapiens, NCI-H3255, 240 h, read-out: EC50 colony formation, H3255, 10 days): 5.59 nM | EC50 (H3255 EGFR L858R; read-out: EC50 colony formation, H3255, 10 days): 5.5 nM | GI50 (HCC827 (EGFR Del19); HCC827, 72 h): 4 nM | EC50 (H1975 EGFR (L858R/T790M); Homo sapiens, NCI-H1975, 240 h, read-out: EC50 colony formation, H1975, 10 days): 118 nM | EC50 (H1975 EGFR (L858R/T790M); read-out: EC50 colony formation, H1975, 10 days): 118 nM

GI50 (A549 (EGFR wt); A549, EGFR wt, 72 hours, read-out: GI50): > 10000 nM | GI50 (H358 (EGFR wt); NCI-H358, H358, EGFR wt, 72 hours, read-out: GI50): > 10000 nM | EC50 (PC-9 EGFR del 19; Homo sapiens, 240 h, PC-9, 10 days, read-out: EC50 colony formation): 11.1 nM | EC50 (PC-9 EGFR del 19; PC-9, 10 days, read-out: EC50 colony formation): 11 nM | GI50 (A431 (EGFR wt); A-431, A431, EGFR wt, 72 hours, read-out: GI50): 1000 nM | GI50 (H2122 (EGFR wt); NCI-H2122, H2122, EGFR wt, 72 hours, read-out: GI50): 4500 nM | GI50 (PC-9 (EGFR Del19); PC-9, EGFR Del19, 72 hours, read-out: GI50): 44 nM | GI50 (H1975 (EGFR L858R/T790M); NCI-H1975, H1975, EGFR L858R/T790M, 72 hours, read-out: GI50): 300 to 1000 nM | EC50 (HCC827 EGFR Del 19; HCC827, 10 days, read-out: EC50 colony formation): 10 nM | EC50 (HCC827 EGFR Del 19; Homo sapiens, HCC827, 240 h, HCC827, 10 days, read-out: EC50 colony formation): 9.65 nM | GI50 (H3255 (EGFR L858R); NCI-H3255, H3255, EGFR L858R, 72 hours, read-out: GI50): 120 nM | GI50 (H460 (EGFR wt); NCI-H460, H460, EGFR wt, 72 hours, read-out: GI50): 4800 nM | EC50 (H3255 EGFR L858R; H3255, 10 days, read-out: EC50 colony formation): 89 nM | EC50 (H3255 EGFR L858R; Homo sapiens, NCI-H3255, 240 h, H3255, 10 days, read-out: EC50 colony formation): 89.1 nM | GI50 (HCC827 (EGFR Del19); HCC827, EGFR Del19, 72 hours, read-out: GI50): 19 nM | EC50 (H1975 EGFR (L858R/T790M); H1975, 10 days, read-out: EC50 colony formation): 12 nM | EC50 (H1975 EGFR (L858R/T790M); Homo sapiens, NCI-H1975, 240 h, H1975, 10 days, read-out: EC50 colony formation): 12.2 nM
SMILES: C=CC(=O)Nc1cccc(Oc2nc(Nc3ccc(N4CCN(C)CC4)cc3OC)ncc2Cl)c1 [WZ-4002, WZ4002]
%G0-G1 (PC-9 cells): 87.95% | %G2-M (PC-9 cells): 6.24% | anti-tumor activity (tumor growth) (PC-9 xenograft): almost completely suppressed the tumor growth | anti-tumor activity (tumor growth) (H1975 xenograft): almost completely suppressed the tumor growth | %G0-G1 (H3255 cells): 81.96% | %G2-M (H3255 cells): 9.90% | %G0-G1 (HCC827 cells): 79.74% | %G2-M (HCC827 cells): 5.62% | %G0-G1 (H1975 cells; H1975, 12h): 70.4% | %G2-M (H1975 cells; H1975, 12h): 10.17% | %G0-G1 (H1975 cells; H1975, 24h): 80.35% | %G2-M (H1975 cells; H1975, 24h): 7.63% | %G0-G1 (H1975 cells; H1975, 48h): 94.64% | %G2-M (H1975 cells; H1975, 48h): 0.95% | GI50 (H23 (EGFR wt); H23, EGFR wt, 72 hours, read-out: GI50): > 10000 nM | %G0-G1 (H460 cells): 71.39% | %G2-M (H460 cells): 5.15%
